{
  "source": "patent US12403184B2",
  "about": "“Compositions and methods for treating neurodegenerative disroders” (priority 2018, dated 2025)",
  "key": {"[1]": {"test_system": "Drp1 with its mitochondrial adaptors Mff, Fis1 and MIEF1", "experiment": "Immunoprecipitation of Drp1 with mitochondrial adaptors after crosslinking", "format": "cell-based, mouse", "conditions": "HdhQ111 cells, 1 μM/day for 4 days", "method": "For Drp1-Mff or Drp-MiD51 (MIEF1) interaction, the cells were cross-linked by […] for 10 min at r.t., then […] in PBS was added to quench the redundant DSP activity. For Drp1-Fis1 interaction, the cells were cross-linked by 1% FA for 20 min at r.t., then added […] in PBS to quench the redundant activity. The cells were washed with PBS, sonicated, and lysed with 1% Triton X-100 total lysis buffer."}, "HD R6/2 mice": {"test_system": "HD R6/2 mice", "experiment": "Striatal neuropathology in R6/2 mice (DARPP-32 immunohistochemistry, Golgi-Cox staining, striatum volume)", "format": "in vivo, mouse", "method": "Mice were deeply anesthetized and transcardially perfused with 4% paraformaldehyde in PBS. Brains were processed for paraffin embedment. Brain sections (10 μm, coronal) were used for immunohistochemical localization of DARPP-32 (1:500, Abcam) or ATAD3A (1:200, Genetex) using the IHC Select HRP/DAB kit (Millipore). Quantitation of DARPP-32 immunostaining was conducted using NIH image J software. The same image exposure times and threshold settings were used for sections from all treatment groups. An experimenter blinded to the experimental groups conducted the quantitation.\nCoronal sections (10 μm) spaced 200 μm apart throughout the striatum will be stained with anti-NeuN (Sigma, MAB377, 1:200 dilution) antibody followed by secondary antibodies and detection with diaminobenzidine (DAB, Pierce). The perimeter of the striatum will be traced in each of the serial sections using a ×2 objective. For the volume estimation, consecutive sections (an average of 10-15 sections/animal) will be visualized and the perimeter of the striatum will be outlined. The striatal volume will be estimated by multiplying the sum of all the sectional areas (mm2) by the distance between successive sections (200 μm).\nDendrite morphology of medium spiny neurons in wildtype and HD R6/2 mice was analyzed by Golgi-Cox staining using Novaultra Golgi-Cox Stain Kit (IHCWorld, SKU IW-3023). Briefly, mice were deeply anesthetized and transcardially perfused with 4% paraformaldehyde in PBS. After thoroughly washing with PBS overnight, mouse brains were immersed in the Golgi-Cox solution in dark at room temperature, then replaced with fresh Golgi-Cox Solution after 2 days of immersion and continued the impregnation at room temperature in dark for 14 days following the manufactory instruction. After washing with PBS for 2 days, serial coronal sections of 200 μm thick were cut on Vibratome Series 1000 Sectioning System. […] Total dendritic length per neuron was measured using NIH Image J plug-in simple neurite tracer."}, "HdhQ111 cells": {"test_system": "HdhQ111 cells", "experiment": "Western blot of mitochondrial biogenesis and electron transport proteins in striatal cells", "format": "cell-based, mouse", "method": "Mouse striatal cell lines HdhQ7 and Q111 cells are immortalized from knock-in mice carrying 7 and 111 CAG repeats, respectively, in the mouse htt gene. HdhQ7 and HdhQ111 purchased from CHDI Foundation were cultured in DMEM supplemented with 10% (v/v) heat-inactivated FBS, 1% (v/v) penicillin/streptomycin, and 400 μg/ml G418 at 33° C. with 5% CO2. Cells within 14 passages were used in all experiments.\nProtein concentration was measured by protein assay dye reagents (Bio-rad). The protein was resuspended in Laemmli buffer, loaded on SDS-PAGE, and transferred onto nitrocellulose membranes. Membranes were probed with the indicated antibodies, followed by visualization with ECL. Representative blots have been cropped for presentation."}, "[2]": {"conditions": "1 mg/kg/day, administered subcutaneously"}, "wildtype mice": {"test_system": "wildtype mice", "experiment": "Tolerability of DA1 treatment in wildtype mice", "format": "in vivo, mouse", "method": "Systemic peptide treatment in HD mice. All randomization and peptide treatments were prepared by an experimenter not associated with behavioral and neuropathology analysis. […] […] The pump was replaced once every month.\nThe body weight and survival rate of HD mice and wild-type littermates were recorded throughout the study period."}, "[3]": {"conditions": "HdhQ111 cells, 1 μM/day for 4 days"}, "[4]": {"conditions": "1 mg/kg/day for 30 days, Alzet mini pumps, vs saline"}},
  "note": "Where no end group is shown, it is not given here.",
  "data": [
    {"substance": "YGRKKRRQRRRGGEDKRKT-NH2 [DA1, YGRKKRRQRRR-GG-EDKRKT-NH2]", "values": [
      {"measurement": "interactions of Drp1 with its mitochondrial adaptors Mff, Fis1 and MIEF1", "setting": "[1]", "result": "did not influence"},
      {"measurement": "dendritic morphology of MSN (Golgi-Cox staining)", "setting": "HD R6/2 mice", "result": "improved"},
      {"measurement": "striatum volume", "setting": "HD R6/2 mice", "result": "increased"},
      {"measurement": "area occupied by DARPP-32-immunostained cells in the striatum", "setting": "HD R6/2 mice; 12 weeks old", "result": "increased"},
      {"measurement": "elevation of TFAM level by DA1 treatment", "setting": "HdhQ111 cells; HD mutant cells with ATAD3A knockdown (siRNA)", "result": "ATAD3A knockdown abolished"},
      {"measurement": "nuclear-encoded mitochondrial respiratory chain components", "setting": "HdhQ111 cells; HdhQ111 cells", "result": "no effect"},
      {"measurement": "PGC1α level", "setting": "HdhQ111 cells; [3]", "result": "restored"},
      {"measurement": "TFAM level", "setting": "HdhQ111 cells; [3]", "result": "restored"},
      {"measurement": "mtCO2 protein level", "setting": "HdhQ111 cells; [3]", "result": "corrected"},
      {"measurement": "brain entry", "setting": "[2]", "result": "entered the brain"},
      {"measurement": "lifespan", "setting": "wildtype mice", "result": "no effect"},
      {"measurement": "relative weight (spleen/body weight)", "setting": "wildtype mice; [4]", "result": "no effects"},
      {"measurement": "spleen morphology", "setting": "wildtype mice; [4]", "result": "no effects"},
      {"measurement": "visible side effects in organs", "setting": "wildtype mice; 1 mg/kg/day subcutaneously", "result": "did not cause"},
      {"measurement": "weight loss", "setting": "wildtype mice; 1 mg/kg/day subcutaneously", "result": "did not cause"},
      {"measurement": "behavioral status", "setting": "wildtype mice; sustained treatment", "result": "minor effects"}
    ]}
  ]
}
